# Laboratory results reported in US9018235B2, “Insecticide compositions” (priority 2004, dated 2015).
# Where two headings read alike, the source gives them in different places.
# What was measured:
# Type in all cases: in vivo
# [1] = tested on: Plutella xylostella; assay: Insecticidal effect against Plutella xylostella through plant-root soil drenching of cabbage (Test Example 4); conditions: single compound, plant-root drench, 2-instar larvae
# Source text: (§1) When the effect obtained by combination of two kinds of the active compounds exceeds the expected value E as calculated by the below-described equation of Colby et al., the synergistic effect is deemed to exist. E=X+Y−X·Y/100 [Equation 2] wherein • E=the death rate of larvae obtained when the active compounds A and B are used at the dose of m and n, respectively; • X=the death rate of larvae when the active compound A is used at the dose of m; • Y=the death rate of larvae when the active compound B is used at the dose of n.
# A test compound was dissolved by adding acetone containing 5% of Tween 20 (tradename) at the rate of 0.1 ml per 1 mg of the test compound, and the solution was diluted with ion-exchange water to a total volume of 3 ml. Each of the insecticide solutions prepared was drenched onto the surface of the plant root soil for a cabbage plant grown in a cell tray (with a soil capacity of 24 ml). Four days later, the above-ground part of the plant was cut and placed in a plastic cup, into which 10 heads of 2-instar larvae of Plutella xylostella were released. The cup was kept in a breeding chamber controlled at a constant temperature (25° C.), and the number of living larvae was counted 4 days later. Death rate of larvae=(Number of larvae dead)/(Number of larvae tested)×100 [Equation 5]
# [2] = tested on: Chilo suppressalis
# Source text: as §1
# A test compound was dissolved by adding acetone containing 5% of Tween 20 (tradename) at the rate of 0.1 ml per 1 mg of the test compound, and the insecticide solution prepared by diluting the solution with ion-exchange water to a predetermined concentration was drenched onto the surface of the soil for raising rice seedlings (5 to 6 seedlings/plant as planted in a paper pot) in the 2.5- to 3-leaf stage at the rate of 1 ml per plant. Two days later, the stalks about 2 cm higher above the soil surface were cut and placed in a test tube, into which 10 heads of 3-instar larvae of Chilo suppressalis were released. The test rube was kept in a breeding chamber controlled at a constant temperature (25° C.), and the number of living larvae was counted 4 to 5 days later. Death rate of larvae=(Number of larvae dead)/(Number of larvae tested)×100 [Equation 4]
# [3] = tested on: Spodoptera litura; assay: Insecticidal effect against Spodoptera litura by soaking treatment of soybean leaves (Test Example 1); conditions: single compound, 0.03 ppm; soybean leaf soaking; 3-instar larvae; 25° C.
# Description: A test compound was dissolved by addition of acetone containing 5% of Tween 20 (tradename) at the rate of 0.1 ml per 1 mg of the test compound, and after the solution is diluted with aqueous 5,000-fold diluted DAIN solution to a predetermined concentration, soybean leaves after complete development of primary leaves were treated through soaking in the insecticide solution for several seconds. After the insecticide solution was dried, four primary leaves were cut off and placed in an ice-cream cup (with a capacity of 180 ml), in which 10 heads of 3-instra larvae of Spodoptera litura were released. The ice-cream cup was kept in a breeding room controlled at a constant temperature (25° C.), and the number of dead larvae was counted three days later. Death rate of larvae=(Number of larvae dead)/(Number of larvae tested)×100 [Equation 1]
# as §1
# [4] = tested on: Plutella xylostella; assay: Insecticidal effect against Plutella xylostella through soaking treatment of cabbage leaf (Test Example 5); conditions: single compound, amount applied 0.0064 mg/plant (as headed), 2-instar larvae
# Source text: as §1
# A test compound was dissolved by adding acetone containing 5% of Tween 20 (tradename) at the rate of 0.1 ml per 1 mg of the test compound, and the insecticide solution was prepared by diluting the solution with an aqueous 5.000-fold diluted DAIN solution to a predetermined concentration. A cabbage leaf was cut off at the site of petiole and soaked in the insecticide solution for several seconds. […] The cup was kept in a breeding room controlled at a constant temperature (25° C.), and the number of dead larvae was counted 4 days later. The death rate of larvae was calculated by the following equation, and the results were shown in Table 8: (Death rate of larvae=(Number of larvae dead)/(Number of larvae tested)×100 [Equation 6]
# [5] = tested on: Spodoptera litura; assay: Insecticidal effect against Spodoptera litura through soaking treatment of soybean roots (Test Example 2); conditions: single compound, soybean root soaking, 3-instar larvae
# Source text: as §1
# A test compound was dissolved by adding acetone containing 5 of Tween 20 (tradename) at the rate of 0.1 ml per 1 mg of the test compound, and the insecticide solution prepared by diluting the solution with ion-exchange water to a predetermined concentration was charged into a light-shielded Erlenmeyer flask (100 ml), into which the root portion of a soybean plant in the stage of development of primary leaves was soaked after being washed with running water to remove soil. Five days after root soaking, two primary leaves were cut off and placed in an ice-cream cup (with a capacity of 180 ml), into which 10 heads of 3-instar larvae were released. The ice-cream cup was kept in a breeding room controlled at a constant temperature (25° C.), and 5 days later, the number of dead larvae was counted. Death rate of larvae=(Number of larvae dead)/(Number of larvae tested)×100 [Equation 3]
smiles,measurement,setting,value
"Cc1cccc(C(=O)NC(C)C)c1NC(=O)c1cc(Cl)nn1-c1ncccc1Cl [Compound (I-3), 2-[1-(3-chloropyridin-2-yl)-3-chloropyrazol-5-ylcarbonylamino]-N-isopropyl-3-methylbenzamide]","Death rate, 4 days later, %",[1]; 0.04 mg/plant,50%
"CNC(=N[N+](=O)[O-])NCC1CCOC1 (racemic) [Dinotefuran, (RS)-1-methyl-2-nitro-3-(tetrahydro-3-furylmethyl)guanidine]","Death rate, 5 days later, %",[2]; in vivo,0%
same,"Death rate, 4 days later, %",[1]; 0.0016 mg/plant,0%
same,"Death rate, 4 days later, %",[1]; 0.04 mg/plant,10%
"Cc1cc(Cl)cc(C(=O)NC(C)C)c1NC(=O)c1cc(C(F)(F)F)nn1-c1ncccc1Cl [Compound (I-2), 5-chloro-2-[1-(3-chloropyridin-2-yl)-3-trifluoromethylpyrazol-5-ylcarbonylamino]-N-isopropyl-3-methylbenzamide]","Death rate, 3 days later, %",[3],30%
same,"Death rate, 4 days later, %",[1]; 0.0016 mg/plant,0%
"Cc1cc(Cl)cc(C(=O)NC(C)C)c1NC(=O)c1cc(Cl)nn1-c1ncccc1Cl [Compound (I-4), 5-chloro-2-[1-(3-chloropyridin-2-yl)-3-chloropyrazol-5-ylcarbonylamino]-N-isopropyl-3-methylbenzamide]","Death rate, 4 days later, %",[4],15%
"Cc1cccc(C(=O)NC(C)C)c1NC(=O)c1cc(Br)nn1-c1ncccc1Cl [Compound (I-5), 2-[3-bromo-1-(3-chloropyridin-2-yl)pyrazol-5-ylcarbonylamino]-N-isopropyl-3-methylbenzamide]","Death rate, 5 days later, %","[2]; single compound, 0.15 mg/plant, soil drench, rice, 3-instar larvae",5%
"CN1COCN(Cc2cnc(Cl)s2)C1=N[N+](=O)[O-] [Thiamethoxam, 3-(2-chloro-1,3-thiazol-5-yl-methyl)-5-methyl-1,3,5-oxa-diazinan-4-ylidene(nitro)amine]","Death rate, 5 days later, %",[5]; 0.007 ppm,0%
same,"Death rate, 4 days later, %",[4],10%
"Cc1cccc(C(=O)NC(C)C)c1NC(=O)c1cc(C(F)(F)F)nn1-c1ncccc1Cl [Compound (I-1), 2-[1-(3-chloropyridin-2-yl)-3-trifluoromethylpyrazol-5-ylcarbonylamino]-N-isopropyl-3-methylbenzamide]","Death rate, 5 days later, %",[5]; 0.007 ppm,55%
same,"Death rate, 4 days later, %","[2]; single compound, 0.01 mg/plant, soil drench, rice, 3-instar larvae",30%
"Cc1cc(Cl)cc(C(=O)NC(C)C)c1NC(=O)c1cc(Br)nn1-c1ncccc1Cl [Compound (I-6), 2-[3-bromo-1-(3-chloropyridin-2-yl)-pyrazol-5-ylcarbonylamino]-5-chloro-N-isopropyl-3-methylbenzamide]","Death rate, 5 days later, %",[5]; 0.00032 ppm,0%
"CN/C(=N\[N+](=O)[O-])NCc1cnc(Cl)s1 [Clothianidin, (E)-1-(2-chloro-1,3-thiazol-5-ylmethyl)-3-methyl-2-nitroguanidine]","Death rate, 5 days later, %",[5]; 0.00032 ppm,0%
same,"Death rate, 3 days later, %",[3],0%
same,"Death rate, 4 days later, %","[2]; single compound, 0.001 mg/plant, soil drench, rice, 3-instar larvae",10%
